Reference: ChEMBL document CHEMBL4304772, “Synthesis, in vitro biological evaluation and in silico studies of certain arylnicotinic acids conjugated with aryl (thio)semicarbazides as a novel class of anti-leishmanial agents” (Eur J Med Chem, 2019)
pIC50: −log10 of the molar value. Calls of active or inactive are those of the source. The calls are words filed in the database; no cut-off is given here.

Assays:
Leishmania major [1] = test: Antileishmanial activity against Leishmania major promastigotes measured after 24 hrs by alamar blue staining based fluorescence assay; format: functional, organism-based
Leishmania major [2] = test: Reversible inhibition of DHFR-TS/PTR1 in Leishmania major promastigote form in presence of excess folic acid
Leishmania major [3] = test: Inhibition of DHFR-TS/PTR1 in Leishmania major promastigote form assessed as parasite survival at 5.9 uM measured after 48 hrs relative to control
[4] = Cytotoxicity against African green monkey Vero cells after 72 hrs by crystal violet staining based assay; format: cell-based; conditions: chlorocebus sabaeus
Leishmania major [5] = test: Antileishmanial activity against Leishmania major promastigote form assessed as parasite survival at 5.9 uM measured after 48 hrs in presence of 100 uM folinic acid relative to control; format: functional
Leishmania major [6] = test: Inhibition of DHFR-TS/PTR1 in Leishmania major promastigote form assessed as parasite survival at 5.9 uM measured after 48 hrs in presence of 20 uM folic acid relative to control
[7] = Selectivity index, ratio of CC50 for African green monkey Vero cells to IC50 for leishmania major promastigote; format: toxicity; conditions: read-out: Ratio CC50/IC50
Leishmania major [8] = test: Antileishmanial activity against Leishmania major amastigotes measured after 72 hrs by resazurin dye based fluorescence assay; format: functional, organism-based
Leishmania major [9] = test: Potency index, ratio of miltefosine IC50 for Leishmania major amastigote form to compound IC50 for Leishmania major amastigote form; format: functional
Leishmania major [10] = test: Inhibition of DHFR-TS/PTR1 in Leishmania major promastigote form assessed as parasite survival at 5.9 uM measured after 48 hrs in presence of 100 uM folic acid relative to control
Leishmania major [11] = test: Antileishmanial activity against Leishmania major promastigote form assessed as parasite survival at 5.9 uM measured after 48 hrs in presence of 20 uM folinic acid relative to control; format: functional
Leishmania major [12] = test: Inhibition of DHFR-TS/PTR1 in Leishmania major promastigote form assessed as parasite survival at 4.5 uM measured after 48 hrs in presence of 20 uM folic acid relative to control
Leishmania major [13] = test: Inhibition of DHFR-TS/PTR1 in Leishmania major promastigote form assessed as parasite survival at 4.5 uM measured after 48 hrs in presence of 100 uM of folic acid relative to control
Leishmania major [14] = test: Antileishmanial activity against Leishmania major promastigote form assessed as parasite survival at 4.5 uM measured after 48 hrs in presence of 20 uM of folinic acid relative to control; format: functional
Leishmania major [15] = test: Antileishmanial activity against Leishmania major promastigote form assessed as parasite survival at 4.5 uM measured after 48 hrs in presence of 100 uM of folinic acid relative to control; format: functional
Leishmania major [16] = test: Inhibition of DHFR-TS/PTR1 in Leishmania major promastigote form assessed as parasite survival at 4.5 uM measured after 48 hrs relative to control
Leishmania major [17] = conditions: 100 uM
Description: Inhibition of DHFR-TS/PTR1 in Leishmania major promastigote form assessed as parasite survival at 100 uM measured after 48 hrs in presence of 100 uM folic acid relative to control

Leishmania major [18] = conditions: 100 uM; remark: listed apart in the source
Description: Inhibition of DHFR-TS/PTR1 in Leishmania major promastigote form assessed as parasite survival at 100 uM measured after 48 hrs relative to control

Row | SMILES | reversible inhibition (active/inactive) (Leishmania major [2]) | pIC50 (Leishmania major [1]) | other results
1 | COc1cc(-c2ccc(C(=O)NNC(=O)Nc3ccc(Cl)cc3)c(C)n2)cc(OC)c1OC | Active | 4.62 | 
2 | COc1cc(-c2ccc(C(=O)NNC(=S)Nc3ccccc3)c(C)n2)cc(OC)c1OC | Active | 5.24 | Survival (Leishmania major [3]): 25%; CC50 at 72 h [4]: 513 µM; Survival (Leishmania major [5]): 88%; Survival (Leishmania major [6]): 72%; selectivity ratio [7]: 90.1; pIC50 (Leishmania major [8]): 5.38; Ratio IC50 (Leishmania major [9]): 1.2 - 2.2; Survival (Leishmania major [10]): 84%; Survival (Leishmania major [11]): 75%
3 | COc1ccc(NC(=O)NNC(=O)c2ccc(-c3ccc(OC)cc3)nc2C)cc1 | Active | 4.70 | 
4 | COc1ccc(NC(=S)NNC(=O)c2ccc(-c3ccc(OC)cc3)nc2C)cc1 | Active | 4.94 | 
5 | COc1ccc(NC(=S)NNC(=O)c2ccc(-c3cc(OC)c(OC)c(OC)c3)nc2C)cc1 | Active | 5.24 | CC50 at 72 h [4]: 506 µM; selectivity ratio [7]: 87.2; pIC50 (Leishmania major [8]): 5.23; Ratio IC50 (Leishmania major [9]): 1.2 - 2.2
6 | COc1ccc(-c2ccc(C(=O)NNC(=S)Nc3ccc(C)cc3)c(C)n2)cc1OC | Active | 4.99 | 
7 | COc1cc(-c2ccc(C(=O)NNC(=S)Nc3ccc(Cl)cc3)c(C)n2)cc(OC)c1OC | Active | 5.37 | Survival (Leishmania major [12]): 78%; Survival (Leishmania major [13]): 87%; Survival (Leishmania major [14]): 81%; CC50 at 72 h [4]: 523 µM; Survival (Leishmania major [15]): 93%; selectivity ratio [7]: 122; pIC50 (Leishmania major [8]): 5.48; Survival (Leishmania major [16]): 23%; Ratio IC50 (Leishmania major [9]): 1.2 - 2.2
8 | COc1ccc(-c2ccc(C(=O)NNC(=S)Nc3ccc(Cl)cc3)c(C)n2)cc1 | Active | 4.78 | 
9 | COc1ccc(-c2ccc(C(=O)NNC(=S)Nc3ccccc3)c(C)n2)cc1 | Active | 4.92 | 
10 | COc1cc(Cc2cnc(N)nc2N)cc(OC)c1OC | Active |  | Survival (Leishmania major [17]): 99%; Survival (Leishmania major [18]): 69%
11 | COc1cc(-c2ccc(C(=O)NNC(=S)Nc3ccc(C)cc3)c(C)n2)cc(OC)c1OC | Active | 5.21 | CC50 at 72 h [4]: 574 µM; selectivity ratio [7]: 94.2; pIC50 (Leishmania major [8]): 5.24; Ratio IC50 (Leishmania major [9]): 1.2 - 2.2
12 | COc1ccc(NC(=O)NNC(=O)c2ccc(-c3cc(OC)c(OC)c(OC)c3)nc2C)cc1 | Active | 4.65 | 
13 | COc1ccc(NC(=S)NNC(=O)c2ccc(-c3ccc(OC)c(OC)c3)nc2C)cc1 | Active | 5.19 | CC50 at 72 h [4]: 632 µM; selectivity ratio [7]: 98.8; pIC50 (Leishmania major [8]): 5.32; Ratio IC50 (Leishmania major [9]): 1.2 - 2.2
14 | CCCCCCCCCCCCCCCCOP(=O)([O-])OCC[N+](C)(C)C [MILTEFOSINE] |  | 5.12 | pIC50 (Leishmania major [8]): 5.14
15 | COc1ccc(-c2ccc(C(=O)NNC(=S)Nc3ccc(C)cc3)c(C)n2)cc1 | Active | 4.97 | Ratio IC50 (Leishmania major [9]): 1.2 - 2.2
16 | COc1ccc(-c2ccc(C(=O)NNC(=O)Nc3ccc(Cl)cc3)c(C)n2)cc1 | Active | 4.66 | 

Continued, in another order:

Row | reversible inhibition (active/inactive) (Leishmania major [2]) | SMILES | pIC50 (Leishmania major [1]) | other results
17 | Active | COc1ccc(-c2ccc(C(=O)NNC(=O)Nc3ccccc3)c(C)n2)cc1 | 4.73 | 
18 | Active | COc1ccc(NC(=O)NNC(=O)c2ccc(-c3ccc(OC)c(OC)c3)nc2C)cc1 | 4.71 | 
19 | Active | COc1ccc(-c2ccc(C(=O)NNC(=O)Nc3ccc(Cl)cc3)c(C)n2)cc1OC | 4.73 | 
20 | Active | COc1ccc(-c2ccc(C(=O)NNC(=S)Nc3ccccc3)c(C)n2)cc1OC | 5.04 | 
21 | Active | COc1ccc(-c2ccc(C(=O)NNC(=S)Nc3ccc(Cl)cc3)c(C)n2)cc1OC | 4.76 | 
22 | Active | COc1cc(-c2ccc(C(=O)NNC(=O)Nc3ccccc3)c(C)n2)cc(OC)c1OC | 4.70 | 
23 | Active | COc1ccc(-c2ccc(C(=O)NNC(=O)Nc3ccccc3)c(C)n2)cc1OC | 4.78 | 
